Reference: ChEMBL document CHEMBL1141099, “Discovery of N-(2,6-dimethylphenyl)-substituted semicarbazones as anticonvulsants: hybrid pharmacophore-based design” (2005)
The source made the active and inactive calls. The calls are words filed in the database; no cut-off is given here.

Assays:
Rattus norvegicus [1] = assay: Number of rats protected at a dose of 30 mg/Kg when given oral at 1 hr upon maximal electroshock seizure; Total number of rats = 4; type: functional
Rattus norvegicus [2] = assay: Number of rats protected at a dose of 30 mg/Kg when given oral at 2 hr upon maximal electroshock seizure; Total number of rats = 4; type: functional
Rattus norvegicus [3] = assay: Number of rats protected at a dose of 30 mg/Kg when given oral at 4 hr upon maximal electroshock seizure; Total number of rats = 4; type: functional
Rattus norvegicus [4] = assay: Number of rats protected at a dose of 30 mg/Kg when given oral at 0.5 hr upon maximal electroshock seizure; Total number of rats = 4; type: functional
Rattus norvegicus [5] = assay: Number of rats protected at a dose of 30 mg/Kg when given oral at 0.25 hr upon maximal electroshock seizure; Total number of rats = 4; type: functional
Rattus norvegicus [6] = assay: Toxic dose observed for anticonvulsant activity when given orally at 2 hr in rat upon neurotoxicity seizure; type: functional; conditions: po
Rattus norvegicus [7] = species: Rattus norvegicus; assay: Protective index between effective dose and toxic dose in rat; type: functional
Mus musculus [8] = assay: Minimum dose required for anticonvulsant activity when given i.p., at 4 hr in mice upon maximal electroshock seizure; type: functional
Mus musculus [9] = assay: Minimum dose required for anticonvulsant activity when given i.p., at 0.5 hr in mice upon maximal electroshock seizure; type: functional
Rattus norvegicus [10] = assay: Effective dose required for anticonvulsant activity when given orally at 2 h in rat upon maximal electroshock seizure; type: functional; conditions: po
Mus musculus [11] = assay: Minimum dose required for anticonvulsant activity when given i.p., at 0.5 hr in mice upon neurotoxicity seizure using rotarod test; type: functional
Mus musculus [12] = assay: Minimum dose required for anticonvulsant activity when given i.p., at 0.5 hr in mice upon subcutaneous pentylenetetrazole seizure; type: functional
Mus musculus [13] = assay: Minimum dose required for anticonvulsant activity when given i.p., at 2 hr in mice upon subcutaneous strychnine seizure; type: functional
Mus musculus [14] = assay: Minimum dose required for anticonvulsant activity when given i.p., at 0.5 hr in mice upon subcutaneous strychnine seizure; type: functional
Mus musculus [15] = assay: Minimum dose required for anticonvulsant activity when given i.p., in mice upon neurotoxicity seizure using rotarod test
Mus musculus [16] = assay: Post treatment activity score for CNS study using a actophotometer at a dose of 100 mg/Kg after 1 h when given i.p., in mice (No. of animals 6); Control (24h before) 214
Mus musculus [17] = assay: Post treatment activity score for CNS study using a actophotometer at a dose of 100 mg/Kg after 0.5 hr when given i.p., in mice (No. of animals 6); Control (24h before) 214
Mus musculus [18] = assay: Post treatment immobility time for CNS study using Porsolt's swimpool test at a dose of 100 mg/Kg after 1 hr when given i.p., in mice (No. of animals 6); Control (24h before) 159
Mus musculus [19] = assay: Post treatment activity score for CNS study using a actophotometer at a dose of 100 mg/Kg after 1 hr when given i.p., in mice (No. of animals 6); Control (24h before) 270
Mus musculus [20] = assay: Post treatment activity score for CNS study using a actophotometer at a dose of 100 mg/Kg after 0.5 hr when given i.p., in mice (No. of animals 6); Control (24h before) 270
Rattus norvegicus [21] = assay: Number of rats protected at a dose of 30 mg/Kg when given oral at 0.5 hr upon maximal electroshock seizure; Total number of rats = 4; Absence of activity; type: functional, organism-based
Rattus norvegicus [22] = assay: Number of rats protected at a dose of 30 mg/Kg when given oral at 0.25 hr upon maximal electroshock seizure; Total number of rats = 4; Absence of activity; type: functional, organism-based
Rattus norvegicus [23] = assay: Number of rats protected at a dose of 30 mg/Kg when given oral at 1 hr upon maximal electroshock seizure; Total number of rats = 4; Absence of activity; type: functional, organism-based
Rattus norvegicus [24] = assay: Number of rats protected at a dose of 30 mg/Kg when given oral at 2 hr upon maximal electroshock seizure; Total number of rats = 4; Absence of activity; type: functional, organism-based
Rattus norvegicus [25] = assay: Number of rats protected at a dose of 30 mg/Kg when given oral at 4 hr upon maximal electroshock seizure; Total number of rats = 4; Absence of activity; type: functional, organism-based
Rattus norvegicus [26] = assay: Minimum dose required for anticonvulsant activity when given i.p., at 2 hr in mice upon subcutaneous strychnine seizure; Absence of activity; type: functional, organism-based; conditions: Mus musculus
Mus musculus [27] = assay: Post treatment immobility time for CNS study using Porsolt's swimpool test at a dose of 100 mg/Kg after 1 hr when given i.p., in mice (No. of animals 6); Control (24h before) 131
Mus musculus [28] = assay: Post treatment activity score for CNS study using a actophotometer at a dose of 100 mg/Kg after 1 hr when given i.p., in mice (No. of animals 6); Control (24h before) 280
Mus musculus [29] = assay: Post treatment activity score for CNS study using a actophotometer at a dose of 100 mg/Kg after 0.5 hr when given i.p., in mice (No. of animals 6); Control (24h before) 280
Mus musculus [30] = assay: Post treatment activity score for CNS study using a actophotometer at a dose of 100 mg/Kg after 1 hr when given i.p., in mice (No. of animals 6); Control (24h before) 201
Mus musculus [31] = assay: Post treatment activity score for CNS study using a actophotometer at a dose of 100 mg/Kg after 0.5 hr when given i.p., in mice (No. of animals 6); Control (24h before) 201
Mus musculus [32] = assay: Post treatment activity score for CNS study using a actophotometer at a dose of 100 mg/Kg after 1 h when given i.p., in mice (No. of animals 6); Control (24h before) 372
Mus musculus [33] = assay: Post treatment activity score for CNS study using a actophotometer at a dose of 100 mg/Kg after 0.5 hr when given i.p., in mice (No. of animals 6); Control (24h before) 372
Rattus norvegicus [34] = assay: Enzymatic activity to assess the increase in level of SGOT at a dose of 30 mg/Kg for 14 days when given p.o., in 6 rats; Control 73.1; type: functional
Rattus norvegicus [35] = assay: Enzymatic activity to assess the increase in level of SGPT at a dose of 30 mg/Kg for 14 days when given p.o., in 6 rats; Control 45.0; type: functional
Rattus norvegicus [36] = assay: Toxic dose observed for anticonvulsant activity when given i.p., at 2 hr in rat upon neurotoxicity seizure; type: functional; conditions: ip
Rattus norvegicus [37] = assay: Effective dose required for anticonvulsant activity when given i.p., at 2 hr in rat upon maximal electroshock seizure; type: functional; conditions: ip
Rattus norvegicus [38] = assay: Minimum dose required for anticonvulsant activity when given i.p., in mice upon subcutaneous picrotoxin seizure; Absence of activity; type: functional, organism-based; conditions: Mus musculus
Rattus norvegicus [39] = assay: Minimum dose required for anticonvulsant activity when given i.p., at 0.5 hr in mice upon subcutaneous pentylenetetrazole seizure; Absence of activity; type: functional, organism-based; conditions: Mus musculus
Mus musculus [40] = assay: Post treatment activity score for CNS study using a actophotometer at a dose of 100 mg/Kg after 1 hr when given i.p., in mice (No. of animals 6); Control (24h before) 247
Mus musculus [41] = assay: Post treatment activity score for CNS study using a actophotometer at a dose of 100 mg/Kg after 0.5 hr when given i.p., in mice (No. of animals 6); Control (24h before) 247

Compound	Activity (Rattus norvegicus [1])	Activity (Rattus norvegicus [2])	Activity (Rattus norvegicus [3])	Activity (Rattus norvegicus [4])	Activity (Rattus norvegicus [5])	MES (Mus musculus [8])	MES (Mus musculus [9])	NT (Mus musculus [11])	PTZ seizure (Mus musculus [12])	STY seizure (Mus musculus [13])	STY seizure (Mus musculus [14])	also measured
CC(=O)C/C(C)=N\NC(=O)Nc1c(C)cccc1C	2	4	4	4	2	300 mg/kg	100 mg/kg	300 mg/kg	300 mg/kg	300 mg/kg	100 mg/kg	TD50 (Rattus norvegicus [6]): > 216 mg/kg; PI (Rattus norvegicus [7]): >10.8; ED50 (Rattus norvegicus [10]): 19.8 mg/kg; NT (Mus musculus [15]): 300 mg/kg; Activity (Mus musculus [16]): 144; Activity (Mus musculus [17]): 127; Activity (Mus musculus [18]): 228
Cc1cccc(C)c1NC(=O)/N=N/c1c(O)[nH]c2ccccc12	1	1	3	2	2	300 mg/kg	100 mg/kg	300 mg/kg	–	100 mg/kg	30 mg/kg	Activity (Mus musculus [19]): 217; Activity (Mus musculus [20]): 224
NC(=O)N1c2ccccc2C=Cc2ccccc21 [CARBAMAZEPINE]	–	–	–	–	–	100 mg/kg	30 mg/kg	100 mg/kg	100 mg/kg	–	–	Activity (Rattus norvegicus [21]): inactive; Activity (Rattus norvegicus [22]): inactive; Activity (Rattus norvegicus [23]): inactive; Activity (Rattus norvegicus [24]): inactive; Activity (Rattus norvegicus [25]): inactive; STY seizure (Rattus norvegicus [26]): inactive; Activity (Mus musculus [27]): 207
Cc1cccc(C)c1NC(=O)/N=N/c1c(O)[nH]c2ccc(Cl)cc12	0	1	1	1	1	300 mg/kg	100 mg/kg	300 mg/kg	300 mg/kg	100 mg/kg	30 mg/kg	Activity (Mus musculus [28]): 267; Activity (Mus musculus [29]): 263
Cc1cccc(C)c1NC(=O)/N=N/c1c(O)[nH]c2ccc(Br)cc12	0	2	0	1	1	300 mg/kg	100 mg/kg	300 mg/kg	–	100 mg/kg	30 mg/kg	Activity (Mus musculus [30]): 176; Activity (Mus musculus [31]): 172
Cc1ccc2[nH]c(O)c(/N=N/C(=O)Nc3c(C)cccc3C)c2c1	3	3	3	1	1	300 mg/kg	100 mg/kg	300 mg/kg	300 mg/kg	100 mg/kg	30 mg/kg	Activity (Mus musculus [32]): 368; Activity (Mus musculus [33]): 355
O=C1NC(=O)C(c2ccccc2)(c2ccccc2)N1 [PHENYTOIN]	3	3	3	4	1	30 mg/kg	30 mg/kg	100 mg/kg	–	–	–	SGOT activity (Rattus norvegicus [34]): 84.1 units/mL; SGPT activity (Rattus norvegicus [35]): 52.6 units/mL; TD50 (Rattus norvegicus [36]): 42.8 mg/kg; TD50 (Rattus norvegicus [6]): > 500 mg/kg; ED50 (Rattus norvegicus [37]): 6.48 mg/kg; PIC seizure (Rattus norvegicus [38]): inactive; PTZ seizure (Rattus norvegicus [39]): inactive; STY seizure (Rattus norvegicus [26]): inactive; NT (Mus musculus [15]): 100 mg/kg; Activity (Mus musculus [40]): 106; Activity (Mus musculus [41]): 104
